The subject of data set [1] is Ewing sarcoma cell lines. In words: SRB assay panel, selectivity Ewing sarcoma vs other pediatric solid tumor cell lines. Type of data set: cell-based. The following applies: mean GI50, 6 Ewing sarcoma cell lines. The method, then:
FIG. 3A-3B. (A) The effects of altertoxin II were evaluated using the SRB assay in 6 Ewing sarcoma cell lines as compared to 4 other pediatric solid tumor cells lines. n≥3 independent experiments. (B) The effects of altertoxin II were evaluated by the Houghton laboratory using the alamar blue assay in an additional 6 Ewing sarcoma cell lines and potency compared to the activities in 5 rhabdomyosarcoma cell lines. n=3 independent experiments.
(§1) The effects of altertoxin II were studied in a larger panel of cell lines and the GI50, the concentration that causes 50% inhibition of cell growth, and the TGI, the concentration that caused total growth inhibition, were determined using the sulforhodamine b (SRB assay). The mean GI50 values shown graphically in FIG. 3A. The IC50, the concentration that causes 50% inhibition of cell proliferation, values were determined in a second panel of Ewing sarcoma and rhabdomyosarcoma cell lines using the altar blue assay and these values are presented in Table 2 and the mean in […].
(In SRB staining, fixed cells bind dye roughly in proportion to their protein.)

Data set [2] deals with RD-ES cells. In words: PARP cleavage immunoblot (apoptosis). In kind it is cell-based. The following applies: 100 nM. The protocol:
(§2) FIG. 4A-4B. Altertoxin II selectively induces PARP cleavage in EWS cell lines. Immunoblotting for total and cleaved PARP. (A) Two Ewing sarcoma (EWS) cell lines, RD-ES and SK-ES-1, were treated with 100 nM altertoxin II (ATX) for the indicated amounts of time. Whole-cell lysates were prepared and separated by SDS-PAGE. (B) The EWS cell line SK-ES-1 and rhabdomysosarcoma cell line A204 were treated with the indicated concentrations of ATX for 18 hours, lysed and separated by SDS-PAGE.
(§3) The ability of altertoxin II to initiate cell death via apoptosis, as measured by PARP cleavage, was evaluated in two Ewing sarcoma cells lines, SK-ES-1 and RD-ES. […] A range of altertoxin II concentrations when then evaluated in SK-ES-1 Ewing sarcoma cells as compared to A204 rhabdomyosarcoma cells.
A general note: In western blotting, separated proteins are transferred to a membrane and probed.

Another data set relates to SK-ES-1 cells. Description: PARP cleavage immunoblot (apoptosis). Type of data set: cell-based. The method, then: as §2, §3
Data set [3] relates to A204 rhabdomyosarcoma cells. Description: PARP cleavage immunoblot (apoptosis). The following applies: 100 nM and 1 μM, 18 hours. Type of data set: cell-based. The method, then: as §2, §3
Data set [4] deals with A673 Ewing sarcoma cells. Description: DNA damage response immunoblot (Chk1, Chk2). The following applies: 10-300 nM, within 6 h. Type of data set: cell-based. The method, then: (§4) FIG. 9A-9B. Altertoxin II causes phosphorylation of CHK1 and 2 and p53 in Ewing sarcoma cells. Ewing sarcoma cells, A673, RD-ES, SK-ES-1, or rhabdomyosarcoma A204 cells were treated with altertoxin II at the concentrations indicated for 6 h (A) or 24 h (B) and whole-cell lysates prepared and proteins separated by SDS-PAGE. These samples were analyzed by immunoblotting for total and phosphorylated Chk1 and 2 and p53 (A).
(§5) Downstream activation of DNA damage response proteins by altertoxin II was subsequently evaluated.

For data set [5], the system named is TC-32 cells. In words: Altertoxin II concentration in cell media by LC/MS. In kind it is in vitro ADME. The following applies: TC-32 media, after 2 h. The protocol: (§6) An experiment was conducted to test this possibility. TC-32 Ewing sarcoma and Rh30 rhabdomyosarcoma cells were treated with 100 nM ATX for 6 h and the conditioned media was then applied to the resistant Rh30 cells. […] Differences in the altertoxin II concentration were measured by LC/MS in media from TC-32 and HepG2 hepatocellular carcinoma cells.

Data set [6] concerns HepG2 hepatocellular carcinoma cells. In words: Altertoxin II concentration in cell media by LC/MS. Type of data set: in vitro ADME. The following applies: after 2 h. The protocol: as §6
Data set [7] has as its system TC-32 cells. In words: R-loop marker S9.6 immunofluorescence. In kind it is cell-based. The following applies: TC-32 nuclei, 24 h. The protocol:
(§7) FIG. 8A-8B. The effects of 10 and 100 nM altertoxin II (ATXII) on 53BP1 foci were evaluated following a 6 h treatment of A673 cells by indirect immunofluorescence. (B) Immunofluorescence of R-loop marker S9.6 in TC-32 cells 24 h after ATXII treatment. Arrows indicate R-loops within nuclei.
(§8) Multiple investigators have shown that Ewing sarcoma cells undergo replication stress and R-loop accumulation.

The test system of data set [8] is RD-ES Ewing sarcoma cells. Description: DNA damage response immunoblot (Chk1, Chk2, p53). In kind it is cell-based. The protocol:
as §4, §5

The next data set concerns Ewing sarcoma cells. In words: Panel of 5 pediatric cancer cell lines, selective cytotoxicity. Type of data set: cell-based. The following applies: 5 types of solid pediatric cancers.
Data set [9] relates to A673 Ewing sarcoma cells. In words: 53BP1 foci immunofluorescence. In kind it is cell-based. The following applies: 10 nM and 100 nM, within 6 h. The protocol: as §7, §8
The test system of data set [10] is RD-ES cells. Description: G1 arrest with CDK4/6 inhibitor and SRB concentration-response. The following applies: RD-ES pre-treated with LSN2813542 (100 nM); SRB assay. In kind it is cell-based. The protocol: FIG. 6. Concentration-response curves for altertoxin II (ATX) with and without pre-treatment with the CDK4/6 inhibitor LSN2813542 (100 nM) using the SRB assay, n=3.
An experiment was designed to evaluate whether the effects of altertoxin II in Ewing sarcoma cells required cell cycle transition. RD-ES cells were arrested in the G1 phase of the cell cycle using the CDK4/6 inhibitor LSN2813542. LSN2813542 (100 nM) had no effect on RD-ES cell viability, but caused greater than 85% of the cells to arrest in G1 for at least 48 h. The arrested cells were then treated with altertoxin II and a concentration-response curve generated.

Data set [11] has as its system 4 Ewing sarcoma cell lines, including SK-ES-1 cells. In words: Cell cycle distribution by flow cytometry. Type of data set: cell-based. The following applies: each of 4 Ewing sarcoma lines. The protocol: FIG. 5A-5B. Altertoxin II causes accumulation of SK-ES-1 Ewing sarcoma cells in the S-phase of the cell cycle. Cell cycle analysis of SK-ES-1 cells by flow cytometry. (A) Histogram of DNA content after treatment with two different concentrations of ATX for 18 hours. (B) quantification of cells in each cell cycle phase.
The effects of altertoxin II on cell cycle distribution were evaluated in 4 Ewing sarcoma cell lines using flow cytometry.
On the technique in general: Flow cytometry measures light scatter and fluorescence of single cells or particles in a stream.

In data set [12] the test system is Ewing sarcoma cell lines. Description: alamar blue panel, selectivity Ewing sarcoma vs rhabdomyosarcoma cell lines. The following applies: alamar blue assay, mean IC50; 6 Ewing sarcoma vs 6 rhabdomyosarcoma cell lines. In kind it is cell-based. The method, then: FIG. 3A-3B. (A) The effects of altertoxin II were evaluated using the SRB assay in 6 Ewing sarcoma cell lines as compared to 4 other pediatric solid tumor cells lines. n≥3 independent experiments. […]
as §1

For the next data set, the system named is Rh30 cells. In words: Conditioned media effect on cell growth, SRB assay. In kind it is cell-based. The following applies: media from TC-32 cells treated with 100 nM for 6 h, vs media from Rh30 cells. The protocol: FIG. 10. Effects of ATXII-conditioned media on Rh30 cell growth. TC-32 or Rh30 cells were treated with 100 nM ATXII for 6 h, the media added to Rh30 cells and cell growth determined with the SRB assay.
as §6

On to `O=C1CC[C@]2(O)c3c(ccc(O)c31)-c1ccc(O)c3c1[C@H]2[C@H]1O[C@H]1C3=O` [altertoxin II], for which, in the data set with Ewing sarcoma cell lines [1], the “selectivity of Ewing sarcoma cell lines vs other pediatric solid tumor cell lines” value stood at 58 fold. Further, the “time to appearance of cleaved PARP” value with RD-ES cells [2] is at most 17 h; with SK-ES-1 cells (100 nM, seen at 7 and 17 hours) it was at most 7 h. Besides, the “apoptosis (PARP cleavage)” value in the data set with SK-ES-1 cells (100 nM and 1 μM, 18 hours) is reported as “cause apoptosis”; in data set [3], “not the rhabdomyosarcoma cells”. Also, the “phosphorylation of Chk1 and Chk2” value with A673 Ewing sarcoma cells [4] was “caused phosphorylation of checkpoint kinase 1 and 2”; in [8] (10-300 nM, within 6 h), “caused phosphorylation of checkpoint kinase 1 and 2”. The “altertoxin II remaining in media” value is given as “approximately 25%” in the data set with TC-32 cells [5] and “no altertoxin II was detectable” in data set [6]. Besides, the “R-loop formation (S9.6 marker)” value in the data set with TC-32 cells [7] is “increased formation of R-loops”. Further, the “phosphorylation of p53” value in [8] was “also observed in RD-ES cells”. In addition, the “selective cytotoxic activity against Ewing sarcoma cells” value in the data set on Ewing sarcoma cells is “potent, Ewing sarcoma-specific effects”. For the same molecule, the 53BP1 foci entry in the data set on A673 Ewing sarcoma cells [9] is listed as “nuclear foci were noted”. For the same molecule, the “increase in total growth inhibition concentration (TGI) after G1 arrest” value in the data set on RD-ES cells [10] amounted to 28 fold. Besides, the cell cycle distribution entry in data set [11] is “Concentration-dependent S-phase arrest”. Moreover, the “selectivity of Ewing sarcoma cell lines vs rhabdomyosarcoma cell lines” value with Ewing sarcoma cell lines [12] is 89 fold. For the same molecule, the “activity of conditioned media against Rh30 cells” value in the data set on Rh30 cells is reported as “substantially higher activity”.
